Measured values taken from patent publication US20220348595A1, “COMPOUNDS AND METHODS FOR THE TARGETED DEGRADATION OF ESTROGEN RECEPTORS” (Endotarget Inc., priority 2021, published 2022).

What was measured:
Type in all cases: cell-based
ER = target: T1, ER (Homo sapiens, UniProt P03372); test: ER antagonism (T47D ERE luciferase), T47d-kb-Luc cells; conditions: read-out: IC50 (ER antagonistm)
T1 construct: endogenous in cells; host or cells: T47d-kb-Luc (T47D stably transfected with a luciferase reporter gene only)
T1 sequence (P03372 1-595): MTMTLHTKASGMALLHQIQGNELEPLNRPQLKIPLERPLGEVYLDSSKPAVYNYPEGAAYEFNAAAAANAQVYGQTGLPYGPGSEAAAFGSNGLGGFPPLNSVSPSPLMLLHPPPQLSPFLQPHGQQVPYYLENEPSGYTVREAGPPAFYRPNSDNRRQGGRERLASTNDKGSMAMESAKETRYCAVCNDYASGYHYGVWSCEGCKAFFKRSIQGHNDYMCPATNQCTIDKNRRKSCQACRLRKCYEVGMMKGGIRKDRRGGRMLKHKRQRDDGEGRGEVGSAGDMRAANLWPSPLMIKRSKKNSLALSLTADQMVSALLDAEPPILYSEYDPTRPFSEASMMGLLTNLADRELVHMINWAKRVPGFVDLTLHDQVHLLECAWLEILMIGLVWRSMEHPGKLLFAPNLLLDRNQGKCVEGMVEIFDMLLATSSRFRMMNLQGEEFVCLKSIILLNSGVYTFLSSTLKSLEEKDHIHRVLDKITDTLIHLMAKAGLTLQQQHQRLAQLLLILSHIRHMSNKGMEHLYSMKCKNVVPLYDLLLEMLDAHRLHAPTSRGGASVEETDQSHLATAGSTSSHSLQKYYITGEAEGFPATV
Procedure, shortened: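 Five sample concentrations, each in quadruplicate and repeated in at least three experiments, were tested for blocking of estradiol activity. Values were expressed relative to the estradiol control. The cell system was the T47d-kb-Luc stable breast cancer line.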

[1] = test system: MCF-7 breast cancer cells; test: MCF-7 proliferation / cell viability assay; conditions: Homo sapiens, MCF7; MCF-7 proliferation with 0.1 nM 17-beta estradiol; read-out: IC50 (anti-proliferation)
Procedure, shortened: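 Survival ratio, with vehicle (DMSO) as 100%, was derived from Coulter-counted viable cell numbers. Cells were grown in 5% FBS DMEM and dosed for 5 days across six concentrations between 10^−10 M and 10^−5 M.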

ERα = target: T2, ERα (Homo sapiens, UniProt P03372); test: ER degradation in MCF-7 cells (Western blot); conditions: for DC50: ER degradation, 24 hours; for Dmax: MCF7, Maximal ER degradation, read-out: Dmax
T2 construct: endogenous in cells; host or cells: MCF-7
T2 sequence (P03372 1-595): T1 sequence (P03372 1-595)
Procedure, shortened: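 ERα levels assessed by Western blot (50 μg lysate protein, infrared scanner) after 24-hour exposure of MCF-7 cells to varied compound concentrations. Values reported as DC50, the concentration halving ER expression, and Dmax, the maximal ER reduction achieved across tested concentrations.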

Row | SMILES | IC50 (ER) | IC50 [1] | DC50 (ERα) | Dmax (ERα)
1 | CC/C(=C(\c1ccc(B(O)O)cc1)c1ccc(N2CCN(CCCN3CCN(c4ccc5c(c4)C(=O)N(C4CCC(=O)NC4=O)C5=O)CC3)CC2)cc1)c1ccccc1 (centres unmarked) [Compound 43, (Z)-(4-(1-(4-(4-(3-(4-(2-(2,6-dioxopiperidin-3-yl)-1,3-dioxoisoindolin-5-yl)piperazin-1-yl)propyl)piperazin-1-yl)phenyl)-2-phenylbut-1-en-1-yl)phenyl)boronic acid] | 10 to 50 nM | < 10 nM | < 10 nM | > 90%
2 | CC/C(=C(/c1ccc(B(O)O)cc1)c1ccc(N2CCN(CCCN3CCN(c4ccc5c(c4)C(=O)N(C4CCC(=O)NC4=O)C5=O)CC3)CC2)cc1)c1ccccc1 (centres unmarked) [Compound 44, (E)-(4-(1-(4-(4-(3-(4-(2-(2,6-dioxopiperidin-3-yl)-1,3-dioxoisoindolin-5-yl)piperazin-1-yl)propyl)piperazin-1-yl)phenyl)-2-phenylbut-1-en-1-yl)phenyl)boronic acid] | < 10 nM | 10 to 50 nM | < 10 nM | > 90%
3 | CC/C(=C(\c1ccc(B(O)O)cc1)c1ccc(N2CCN(CCCN3CCN(c4ccc5c(c4)CN(C4CCC(=O)NC4=O)C5=O)CC3)CC2)cc1)c1ccccc1 (centres unmarked) [Compound 45, (Z)-(4-(1-(4-(4-(3-(4-(2-(2,6-dioxopiperidin-3-yl)-1-oxoisoindolin-5-yl)piperazin-1-yl)propyl)piperazin-1-yl)phenyl)-2-phenylbut-1-en-1-yl)phenyl)boronic acid] | < 10 nM | 10 to 50 nM | < 10 nM | > 90%
4 | CC/C(=C(/c1ccc(B(O)O)cc1)c1ccc(N2CCN(CCCN3CCN(c4ccc5c(c4)CN(C4CCC(=O)NC4=O)C5=O)CC3)CC2)cc1)c1ccccc1 (centres unmarked) [Compound 46, (E)-(4-(1-(4-(4-(3-(4-(2-(2,6-dioxopiperidin-3-yl)-1-oxoisoindolin-5-yl)piperazin-1-yl)propyl)piperazin-1-yl)phenyl)-2-phenylbut-1-en-1-yl)phenyl)boronic acid] | < 10 nM | 10 to 50 nM | < 10 nM | > 90%
5 | CC/C(=C(\c1ccc(B(O)O)cc1)c1ccc(C2CCN(CCCN3CCN(c4ccc5c(c4)C(=O)N(C4CCC(=O)NC4=O)C5=O)CC3)CC2)cc1)c1ccccc1 (centres unmarked) [Compound 47] | 10 to 50 nM | 10 to 50 nM | < 10 nM | > 90%
6 | CC/C(=C(/c1ccc(B(O)O)cc1)c1ccc(C2CCN(CCCN3CCN(c4ccc5c(c4)C(=O)N(C4CCC(=O)NC4=O)C5=O)CC3)CC2)cc1)c1ccccc1 (centres unmarked) [Compound 48, (E)-(4-(1-(4-(1-(3-(4-(2-(2,6-dioxopiperidin-3-yl)-1,3-dioxoisoindolin-5-yl)piperazin-1-yl)propyl)piperidin-4-yl)phenyl)-2-phenylbut-1-en-1-yl)phenyl)boronic acid] | 10 to 50 nM | 10 to 50 nM | < 10 nM | > 90%
7 | CC/C(=C(\c1ccc(B(O)O)cc1)c1ccc(C2CCN(CCCN3CCN(c4ccc5c(c4)CN(C4CCC(=O)NC4=O)C5=O)CC3)CC2)cc1)c1ccccc1 (centres unmarked) [Compound 49, (Z)-(4-(1-(4-(1-(3-(4-(2-(2,6-dioxopiperidin-3-yl)-1-oxoisoindolin-5-yl)piperazin-1-yl)propyl)piperidin-4-yl)phenyl)-2-phenylbut-1-en-1-yl)phenyl)boronic acid] | < 10 nM | 10 to 50 nM | < 10 nM | > 90%
8 | CC/C(=C(/c1ccc(B(O)O)cc1)c1ccc(C2CCN(CCCN3CCN(c4ccc5c(c4)CN(C4CCC(=O)NC4=O)C5=O)CC3)CC2)cc1)c1ccccc1 (centres unmarked) [Compound 50, (E)-(4-(1-(4-(1-(3-(4-(2-(2,6-dioxopiperidin-3-yl)-1-oxoisoindolin-5-yl)piperazin-1-yl)propyl)piperidin-4-yl)phenyl)-2-phenylbut-1-en-1-yl)phenyl)boronic acid] | < 10 nM | 10 to 50 nM | < 10 nM | > 90%
9 | CC/C(=C(\c1ccc(B(O)O)cc1)c1ccc(N2CCC(CCCN3CCN(c4ccc5c(c4)C(=O)N(C4CCC(=O)NC4=O)C5=O)CC3)CC2)cc1)c1ccccc1 (centres unmarked) [Compound 51, (Z)-(4-(1-(4-(4-(3-(4-(2-(2,6-dioxopiperidin-3-yl)-1,3-dioxoisoindolin-5-yl)piperazin-1-yl)propyl)piperidin-1-yl)phenyl)-2-phenylbut-1-en-1-yl)phenyl)boronic acid] | 10 to 50 nM | 10 to 50 nM | < 10 nM | > 90%
10 | CC/C(=C(/c1ccc(B(O)O)cc1)c1ccc(N2CCC(CCCN3CCN(c4ccc5c(c4)C(=O)N(C4CCC(=O)NC4=O)C5=O)CC3)CC2)cc1)c1ccccc1 (centres unmarked) [Compound 52, (E)-(4-(1-(4-(4-(3-(4-(2-(2,6-dioxopiperidin-3-yl)-1,3-dioxoisoindolin-5-yl)piperazin-1-yl)propyl)piperidin-1-yl)phenyl)-2-phenylbut-1-en-1-yl)phenyl)boronic acid] | 10 to 50 nM | 10 to 50 nM | < 10 nM | > 90%
11 | CC/C(=C(\c1ccc(B(O)O)cc1)c1ccc(N2CCC(CCCN3CCN(c4ccc5c(c4)CN(C4CCC(=O)NC4=O)C5=O)CC3)CC2)cc1)c1ccccc1 (centres unmarked) [Compound 53, (Z)-(4-(1-(4-(4-(3-(4-(2-(2,6-dioxopiperidin-3-yl)-1-oxoisoindolin-5-yl)piperazin-1-yl)propyl)piperidin-1-yl)phenyl)-2-phenylbut-1-en-1-yl)phenyl)boronic acid] | < 10 nM | 10 to 50 nM | < 10 nM | > 90%
12 | CC/C(=C(/c1ccc(B(O)O)cc1)c1ccc(N2CCC(CCCN3CCN(c4ccc5c(c4)CN(C4CCC(=O)NC4=O)C5=O)CC3)CC2)cc1)c1ccccc1 (centres unmarked) [Compound 54] | < 10 nM | 10 to 50 nM | < 10 nM | > 90%
13 | CC/C(=C(\c1ccc(B(O)O)cc1)c1ccc(N2CCN(CCCC3CCN(c4ccc5c(c4)C(=O)N(C4CCC(=O)NC4=O)C5=O)CC3)CC2)cc1)c1ccccc1 (centres unmarked) [Compound 55, (Z)-(4-(1-(4-(4-(3-(1-(2-(2,6-dioxopiperidin-3-yl)-1,3-dioxoisoindolin-5-yl)piperidin-4-yl)propyl)piperazin-1-yl)phenyl)-2-phenylbut-1-en-1-yl)phenyl)boronic acid] | 10 to 50 nM | 10 to 50 nM | < 10 nM | > 75%
14 | CC/C(=C(/c1ccc(B(O)O)cc1)c1ccc(N2CCN(CCCC3CCN(c4ccc5c(c4)C(=O)N(C4CCC(=O)NC4=O)C5=O)CC3)CC2)cc1)c1ccccc1 (centres unmarked) [Compound 56, (E)-(4-(1-(4-(4-(3-(1-(2-(2,6-dioxopiperidin-3-yl)-1,3-dioxoisoindolin-5-yl)piperidin-4-yl)propyl)piperazin-1-yl)phenyl)-2-phenlbut-1-en-1-yl)phenyl)boronic acid] | 10 to 50 nM | 10 to 50 nM | < 10 nM | > 75%
15 | CC/C(=C(\c1ccc(B(O)O)cc1)c1ccc(N2CCN(CCCC3CCN(c4ccc5c(c4)CN(C4CCC(=O)NC4=O)C5=O)CC3)CC2)cc1)c1ccccc1 (centres unmarked) [Compound 57, (Z)-(4-(1-(4-(4-(3-(1-(2-(2,6-dioxopiperidin-3-yl)-1-oxoisoindolin-5-yl)piperidin-4-yl)propyl)piperazin-1-yl)phenyl)-2-phenylbut-1-en-1-yl)phenyl)boronic acid] | 10 to 50 nM | 10 to 50 nM | < 10 nM | > 90%
16 | CC/C(=C(/c1ccc(B(O)O)cc1)c1ccc(N2CCN(CCCC3CCN(c4ccc5c(c4)CN(C4CCC(=O)NC4=O)C5=O)CC3)CC2)cc1)c1ccccc1 (centres unmarked) [Compound 58] | 10 to 50 nM | 10 to 50 nM | < 10 nM | > 90%
17 | CC/C(=C(\c1ccc(B(O)O)cc1)c1ccc(N2CCN(CCN3CCN(c4ccc5c(c4)C(=O)N(C4CCC(=O)NC4=O)C5=O)CC3)CC2)cc1)c1ccccc1 (centres unmarked) [Compound 59, (Z)-(4-(1-(4-(4-(2-(4-(2-(2,6-dioxopiperidin-3-yl)-1,3-dioxoisoindolin-5-yl)piperazin-1-yl)ethyl)piperazin-1-yl)phenyl)-2-phenylbut-1-en-1-yl)phenyl)boronic acid] | 10 to 50 nM | 10 to 50 nM | 10 to 50 nM | > 90%
